Test systems include SW-620; M14; UO-31; IGROV-1; SR; KM12; ACHN; UACC-257; COLO 205; T47D; HCT-116; MOLT-4; U-251; A549; MCF7; BT-549; HOP-62; SK-OV-3; SN12C; HOP-92.
Common to all, as to experiment: NCI-60 cell line screen, 48 h

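Cells were grown in 96-well plates and exposed to each compound for 48 hours at five concentrations; endpoints were interpolated linearly between bracketing concentrations, or set to the highest concentration if not reached. GI50 marks 50% less growth.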 Calls of active or inactive are those of the source. Rule as the data show it: active = GI50 up to about 1.1 µM and inactive = higher.

On to `Cc1cc(S(=O)(=O)NC2=NNC(C)CN2)c(S)cc1Cl` (configuration not stated), for which the GI50 with SW-620 was 32.3 µM (inactive); in the experiment with M14 it was 27.7 µM (inactive); in the experiment with UO-31, 51.5 µM (inactive); with IGROV-1 it was 23.9 µM (inactive); in the experiment on SR, 37.2 µM (inactive); in the experiment with KM12, 61.8 µM (inactive). In addition, the GI50 in the experiment with ACHN was 46.1 µM (inactive); in the experiment with UACC-257, > 100 µM (inactive); in the experiment with COLO 205, > 100 µM (inactive); in the experiment on T47D it was 37.8 µM (inactive); in the experiment on HCT-116, 38.4 µM (inactive); in the experiment with MOLT-4 it was 44.2 µM (inactive). The GI50 is 39.2 µM (inactive) in the experiment with U-251; 37.9 µM (inactive) in the experiment on A549; 35.8 µM (inactive) in the experiment on MCF7; 49.3 µM (inactive) in the experiment with BT-549; 48.8 µM (inactive) in the experiment on HOP-62; > 100 µM (inactive) in the experiment on SK-OV-3. The GI50 with SN12C was 80.5 µM (inactive).

Consider `CC(=O)Nc1ccc(Nc2nc(=O)[nH]c(=O)[nH]2)cc1`, for which the GI50 with SW-620 was > 100 µM (inactive); in the experiment on M14, > 100 µM (inactive); in the experiment with UO-31, 28.6 µM (inactive); in the experiment with IGROV-1, > 100 µM (inactive); with SR it was > 100 µM (inactive); in the experiment on KM12 it was > 100 µM (inactive). Further, the GI50 in the experiment on HOP-92, in the experiment on ACHN, with UACC-257, in the experiment on COLO 205, with T47D and in the experiment with HCT-116 was > 100 µM (inactive) throughout. The GI50 in the experiment on U-251, with A549, with MCF7, in the experiment with BT-549, in the experiment on HOP-62 and with SK-OV-3 was > 100 µM (inactive) each time. Moreover, the GI50 in the experiment on SN12C is > 100 µM (inactive).

In the case of `CCN(CC)C1Oc2cc3c(cc2C(c2cccc(OC)c2O)C1C)OCO3` (configuration not stated), the GI50 in the experiment with SW-620 was 4.33 µM (inactive); in the experiment on M14, 2.98 µM (inactive); in the experiment with UO-31, 9.38 µM (inactive); with IGROV-1, 8.04 µM (inactive); in the experiment on SR, 4.75 µM (inactive); in the experiment on KM12 it was 4.1 µM (inactive). In addition, the GI50 was 6.25 µM (inactive) with ACHN; 7.6 µM (inactive) in the experiment on UACC-257; 3.03 µM (inactive) in the experiment on COLO 205; 14.5 µM (inactive) with T47D; 4.28 µM (inactive) in the experiment with HCT-116; 3.68 µM (inactive) in the experiment with MOLT-4. In addition, the GI50 in the experiment on U-251 was 3.69 µM (inactive); in the experiment with A549, 5.02 µM (inactive); in the experiment on MCF7 it was 9.55 µM (inactive); with BT-549, 7.18 µM (inactive); in the experiment with HOP-62, 5.28 µM (inactive); in the experiment on SK-OV-3 it was 4.99 µM (inactive). Also, the GI50 in the experiment with SN12C is 4.6 µM (inactive).

As for `CCOC(=O)c1ccc2c(c1)Cc1cc([N+](=O)[O-])ccc1-2`, the GI50 is 65.2 µM (inactive) with SW-620; 97.1 µM (inactive) in the experiment with M14; 30.4 µM (inactive) with UO-31; 10.6 µM (inactive) with IGROV-1; 69.3 µM (inactive) in the experiment on KM12; 26.1 µM (inactive) with HOP-92. The GI50 with ACHN was 29.9 µM (inactive); in the experiment on UACC-257, 48.1 µM (inactive); in the experiment with COLO 205, 23.2 µM (inactive); in the experiment on T47D, 87.1 µM (inactive); in the experiment with HCT-116 it was 59.4 µM (inactive); in the experiment on MOLT-4 it was 20.1 µM (inactive). Moreover, the GI50 was 39.4 µM (inactive) with U-251; 33.7 µM (inactive) with A549; 19.3 µM (inactive) in the experiment with MCF7; 30.1 µM (inactive) in the experiment with BT-549; > 100 µM (inactive) in the experiment with HOP-62; 29.6 µM (inactive) in the experiment with SK-OV-3. In addition, the GI50 in the experiment on SN12C is 89.3 µM (inactive).

`Cc1cn(CCCCCCC2=NCCCN2)c(=O)[nH]c1=O`: the GI50 in the experiment on SW-620, with M14, in the experiment on UO-31, in the experiment on IGROV-1, in the experiment on KM12 and in the experiment with HOP-92 was > 100 µM (inactive) each time. Besides, the GI50 with ACHN, with UACC-257, in the experiment with COLO 205, in the experiment on T47D, in the experiment on HCT-116 and in the experiment with MOLT-4 was > 100 µM (inactive) throughout. For the same compound, the GI50 in the experiment with U-251, in the experiment on A549, with MCF7, with BT-549, in the experiment on HOP-62 and with SK-OV-3 was > 100 µM (inactive) throughout. Further, in the experiment with SN12C, the GI50 is > 100 µM (inactive).

For the compound `C/C(=N/O)c1cccc(Nc2nc3ccc(Cl)cc3c3[nH]c4ccccc4c23)c1`, the GI50 was 1.06 µM (active) with SW-620; 1.82 µM (inactive) in the experiment with M14; 2.33 µM (inactive) in the experiment on UO-31; 1.5 µM (inactive) in the experiment with IGROV-1; 1.24 µM (inactive) in the experiment on SR; 1.38 µM (inactive) in the experiment on KM12. Besides, the GI50 with ACHN is 0.929 µM (active); in the experiment on UACC-257, 3.53 µM (inactive); with COLO 205, 1.77 µM (inactive); with T47D it was 1.58 µM (inactive); in the experiment with HCT-116, 0.205 µM (active); in the experiment on MOLT-4, 0.242 µM (active). Also, the GI50 is 2.44 µM (inactive) with U-251; 1.6 µM (inactive) in the experiment on A549; 0.935 µM (active) in the experiment on MCF7; 2.93 µM (inactive) in the experiment with BT-549; 2.77 µM (inactive) with HOP-62; 3.42 µM (inactive) in the experiment on SK-OV-3. Besides, the GI50 with SN12C was 2.51 µM (inactive).

For the compound `CCOC(=O)c1ccc(C(=O)C(C(C)=O)C(=O)OC(C)(C)C)n1C` (configuration not stated), the GI50 in the experiment on SW-620 is > 100 µM (inactive); in the experiment with M14, > 100 µM (inactive); in the experiment on UO-31 it was > 100 µM (inactive); with IGROV-1 it was > 100 µM (inactive); with SR, 57.4 µM (inactive); in the experiment with KM12, > 100 µM (inactive). The GI50 in the experiment on ACHN is > 100 µM (inactive); in the experiment with UACC-257, > 100 µM (inactive); in the experiment on COLO 205, > 100 µM (inactive); with T47D, > 100 µM (inactive); with HCT-116, > 100 µM (inactive); with MOLT-4 it was 67.5 µM (inactive). For the same compound, the GI50 in the experiment on U-251, in the experiment with A549, in the experiment with MCF7, in the experiment on BT-549, in the experiment on HOP-62 and in the experiment on SK-OV-3 was > 100 µM (inactive) throughout. The GI50 with SN12C was > 100 µM (inactive).

For `COc1ccc(-[n+]2nc(S(=O)(=O)O)c(/C=C/c3ccc(N(C)C)cc3)cc2C#N)cc1`, the GI50 in the experiment on SW-620, with M14, in the experiment on UO-31, in the experiment on IGROV-1, in the experiment with KM12 and in the experiment on HOP-92 was > 100 µM (inactive) throughout. In addition, the GI50 in the experiment on ACHN, in the experiment on UACC-257, in the experiment with COLO 205, in the experiment with T47D, in the experiment on HCT-116 and in the experiment on MOLT-4 was > 100 µM (inactive) in each case. For the same compound, the GI50 in the experiment with U-251, in the experiment on A549, with MCF7, in the experiment on BT-549, with HOP-62 and in the experiment with SK-OV-3 was > 100 µM (inactive) each time. In addition, the GI50 in the experiment on SN12C is > 100 µM (inactive).

Source of the values: ChEMBL document CHEMBL1201862, “PubChem BioAssay data set” (2004).
